Measured values: the CheMixHub viscosity set
“And” between values parts separate entries of the source, which are not always exact repeats. Equal entries are not always repeated.

Assays:
[1] = xn = mol fraction of the nth substance listed

CCCC(C)O (centres undefined) + COC(C)(C)C
viscosity [mPa·s], [1], 100 kPa
Conditions | x2 = 0.0811 | x2 = 0.1599 | x2 = 0.24 | x2 = 0.3501 | x2 = 0.44 | x2 = 0.56 | x2 = 0.65 | x2 = 0.74 | x2 = 0.8499 | x2 = 0.94
293.15 K | 2.815 | 1.943 | 1.344 | 0.97 | 0.774 | 0.621 | 0.546 | 0.496 | 0.436 | 0.39
298.15 K | 2.359 | 1.633 | 1.134 | 0.823 | 0.666 | 0.546 | 0.488 | 0.441 | 0.39 | 0.355
303.15 K | 1.994 | 1.378 | 0.98 | 0.705 | 0.574 | 0.474 | 0.424 | 0.39 | 0.35 | 0.321
308.15 K | 1.682 | 1.181 | 0.868 | 0.617 | 0.493 | 0.407 | 0.37 | 0.341 | 0.313 | 0.292
313.15 K | 1.419 | 1.001 | 0.728 | 0.514 | 0.407 | 0.337 | 0.313 | 0.296 | 0.275 | 0.263
318.15 K | 1.208 | 0.849 | 0.613 | 0.412 | 0.326 | 0.275 | 0.255 | 0.243 | 0.234 | 0.231
323.15 K | 1.032 | 0.744 | 0.524 | 0.345 | 0.268 | 0.226 | 0.211 | 0.2 | 0.197 | 0.2

COCCO + CCCCO
viscosity [mPa·s], [1]
Conditions | 298.15 K | 308.15 K | 313.15 K | 318.15 K
100 kPa, x1 = 0.1009 | 2.27 | – | 1.6 | –
100 kPa, x1 = 0.2003 | 2.06 | – | 1.48 | –
100 kPa, x1 = 0.3003 | 1.91 | – | 1.39 | –
100 kPa, x1 = 0.4012 | 1.8 | – | 1.32 | –
100 kPa, x1 = 0.5008 | 1.72 | – | 1.27 | –
100 kPa, x1 = 0.6012 | 1.65 | – | 1.24 | –
100 kPa, x1 = 0.7006 | 1.61 | – | 1.21 | –
100 kPa, x1 = 0.7998 | 1.58 | – | 1.19 | –
100 kPa, x1 = 0.9 | 1.56 | – | 1.18 | –
101 kPa, x1 = 0.09765 | 2.212 | 1.688 | – | 1.266
101 kPa, x1 = 0.1958 | 2.061 | 1.583 | – | 1.212
101 kPa, x1 = 0.2945 | 1.948 | 1.49 | – | 1.172
101 kPa, x1 = 0.3937 | 1.88 | 1.355 | – | 1.117
101 kPa, x1 = 0.4934 | 1.813 | 1.304 | – | 1.063
101 kPa, x1 = 0.5937 | 1.767 | 1.248 | – | 1.046
101 kPa, x1 = 0.6944 | 1.723 | 1.219 | – | 1.036
101 kPa, x1 = 0.7957 | 1.674 | 1.191 | – | 0.996
101 kPa, x1 = 0.8976 | 1.622 | 1.179 | – | 0.9925
101.33 kPa, x1 = 0.1184 | – | 1.694 | – | –
101.33 kPa, x1 = 0.2345 | – | 1.551 | – | –
101.33 kPa, x1 = 0.3377 | – | 1.443 | – | –
101.33 kPa, x1 = 0.4484 | – | 1.361 | – | –
101.33 kPa, x1 = 0.5476 | – | 1.305 | – | –
101.33 kPa, x1 = 0.6312 | – | 1.265 | – | –
101.33 kPa, x1 = 0.7363 | – | 1.229 | – | –
101.33 kPa, x1 = 0.9104 | – | 1.195 | – | –

COCCO + CC(C)(C)O
[1]
Conditions | viscosity [mPa·s]
303.15 K, 101.3 kPa, x1 = 0.1011 | 2.892
303.15 K, 101.3 kPa, x1 = 0.1977 | 2.538
303.15 K, 101.3 kPa, x1 = 0.2694 | 2.324
303.15 K, 101.3 kPa, x1 = 0.3774 | 2.043
303.15 K, 101.3 kPa, x1 = 0.4851 | 1.831
303.15 K, 101.3 kPa, x1 = 0.6774 | 1.579
303.15 K, 101.3 kPa, x1 = 0.745 | 1.523
303.15 K, 101.3 kPa, x1 = 0.849 | 1.456
303.15 K, 101.3 kPa, x1 = 0.9028 | 1.427
308.15 K, 101.33 kPa, x1 = 0.119 | 2.241
308.15 K, 101.33 kPa, x1 = 0.2504 | 1.929
308.15 K, 101.33 kPa, x1 = 0.3687 | 1.713
308.15 K, 101.33 kPa, x1 = 0.5096 | 1.527
308.15 K, 101.33 kPa, x1 = 0.6441 | 1.402
308.15 K, 101.33 kPa, x1 = 0.7218 | 1.35
308.15 K, 101.33 kPa, x1 = 0.8035 | 1.298
308.15 K, 101.33 kPa, x1 = 0.9026 | 1.242

CCCCCCn1cc[n+](C)c1C.O=S(=O)([N-]S(=O)(=O)C(F)(F)F)C(F)(F)F
100 kPa
Conditions | viscosity [mPa·s]
293.15 K | 172
298.15 K | 129
303.15 K | 99
308.15 K | 78

CCCC[N+](C)(CCCC)CCCC.N#C[N-]C#N
101 kPa
Conditions | viscosity [mPa·s]
293.15 K | 497.7
303.15 K | 238.9
313.15 K | 127.3
323.15 K | 74.87

CCCC(C)O (centres undefined)
Conditions | viscosity
293.15 K, 101.33 kPa | 3.376 mPa·s
298.15 K, 100 kPa | 3.426 mPa·s
298.15 K, 101 kPa | 3.38 mPa·s and 3.2 mPa·s
298.15 K, 101.3 kPa | 3.45 mPa·s
303 K, 101.33 kPa | 2.677 mPa·s
303.15 K, 101 kPa | 2.739 mPa·s
303.15 K, 101.33 kPa | 2.763 mPa·s and 2.888 mPa·s and 2.887 mPa·s
308.15 K, 101 kPa | 2.312 mPa·s
308.15 K, 101.3 kPa | 2.32 mPa·s
313 K, 101.33 kPa | 2.014 mPa·s
313.15 K, 101 kPa | 1.943 mPa·s
313.15 K, 101.3 kPa | 1.92 mPa·s
313.15 K, 101.33 kPa | 2.017 mPa·s
318.15 K, 101 kPa | 1.674 mPa·s
323.15 K, 101 kPa | 1.479 mPa·s
323.15 K, 101.33 kPa | 1.521 mPa·s
